Counter-ions that a name gives are not always drawn. Like-named read-outs stand apart in the source and are kept apart here.
Experiment: Hydrolisis rate of prodrug in whole rat blood (Franz-type cell, phenytoin measured by HPLC)
Assay type: in vitro ADME
Details: for hydrolisis (rate, in words): blood hydrolisis, summary statement on Tables 1 and 2; for metabolised at 10 s: time 0.17 min; for metabolised at 20 s: time 0.33 min; for metabolised at 0.5 min: time 0.50 min; for metabolised at 0.025 h: time 1.5 min; for metabolised at 0.8 h: time 48.00 min; for metabolised at 15 s: time 0.25 min; for metabolised at 0.25 h: time 15.00 min; for metabolised at 1 h: time 60.00 min; for metabolised at 2.45 h: time 147.00 min; for metabolised at 3.15 h: time 189.00 min
Protocol: To study the hydrolisis of prodrugs in blood, Franz-type permeation cells of the company Crown Glass Co. Somerville, N.Y. have been used. The receiving compartment is used which allows for water recirculation using a glass packet in order to keep the system at 37 °C. This compartment is equipped with magnetic stirring.
For the experiment, male Wistar albino rats weighing 200-275 g, bred and selected at the stabularium of the School of Pharmacy of Barcelona, were used. The animals were fasted for 20 hours before starting the trials, but they were given water ad libitum throughout this period. In order to avoid coprophagy, the animals were placed in cages with a broad wire netting bottom.
After anesthesizing the rat, blood was drawn by cardiac puncture. A known amount of blood (10 ml) containing a prodrug concentration of 40 µg/ml was introduced through the lateral tubes of the receiving compartment of Franz cells. The system was kept at 37 °C and stirred magnetically, samples were taken (1 ml) and phenytoin was measured in each of them by HPLC.
The analytical methods were validated prior to estimating phenytoin levels in blood samples.
As in the previous case, three replicates of the tested product were used.

[1] = rat, whole blood, whole rat blood, 37 °C, prodrug 40 µg/ml, mean of replicates, read-out: % HYDROLISIS IN WHOLE BLOOD, m ± s.d.
[2] = rat, whole blood, whole rat blood, 37 °C, prodrug 40 µg/ml, replicate 1, read-out: % HYDROLISIS IN WHOLE BLOOD
[3] = rat, whole blood, whole rat blood, 37 °C, prodrug 40 µg/ml, replicate 2, read-out: % HYDROLISIS IN WHOLE BLOOD
[4] = rat, whole blood, whole rat blood, 37 °C, prodrug 40 µg/ml, replicate 3, read-out: % HYDROLISIS IN WHOLE BLOOD
[5] = rat, whole blood, whole rat blood, 37 °C, mean of replicates, read-out: % HYDROLISIS IN WHOLE BLOOD, m ± s.d.
[6] = rat, whole blood, whole rat blood, 37 °C, replicate 1, read-out: % HYDROLISIS IN WHOLE BLOOD
[7] = rat, whole blood, whole rat blood, 37 °C, replicate 2, read-out: % HYDROLISIS IN WHOLE BLOOD
[8] = rat, whole blood, whole rat blood, 37 °C, replicate 3, read-out: % HYDROLISIS IN WHOLE BLOOD

SMILES: CN1CCN(CC(=O)OCN2C(=O)NC(c3ccccc3)(c3ccccc3)C2=O)CC1 [IX, 5,5-diphenyl-3-[(4-methylpiperazinyl)-acetoxymethyl]hydantoin dihydrochloride]
- hydrolisis (rate, in words): virtually instantaneous
- metabolised at 10 s [1]: 100 ± 7.96%
- metabolised at 10 s [2]: 99%
- metabolised at 10 s [3]: 109%
- metabolised at 10 s [4]: 93.1%
- metabolised at 20 s [1]: 102 ± 20.8%
- metabolised at 20 s [2]: 85.6%
- metabolised at 20 s [3]: 95.8%
- metabolised at 20 s [4]: 126%
- metabolised at 0.5 min [1]: 102 ± 13.2%
- metabolised at 0.5 min [2]: 92.7%
- metabolised at 0.5 min [3]: 96.5%
- metabolised at 0.5 min [4]: 117%
- metabolised at 0.025 h [1]: 104 ± 7.14%
- metabolised at 0.025 h [2]: 95.8%
- metabolised at 0.025 h [3]: 108%
- metabolised at 0.025 h [4]: 109%
- metabolised at 5 min [1]: 109%
- metabolised at 5 min [2]: 105%
- metabolised at 5 min [3]: 117%
- metabolised at 5 min [4]: 105%
- metabolised at 16 min [1]: 115 ± 5.79%
- metabolised at 16 min [3]: 119%
- metabolised at 16 min [4]: 110%
- metabolised at 0.8 h [1]: 100 ± 3.91%
- metabolised at 0.8 h [2]: 97.2%
- metabolised at 0.8 h [3]: 99.4%
- metabolised at 0.8 h [4]: 105%
- metabolised at 115 min (rat, whole blood, whole rat blood, 37 °C, prodrug 40 µg/ml, time 115.00 min, replicate 2): 99.7%

SMILES: O=C1NC(c2ccccc2)(c2ccccc2)C(=O)N1COP(=O)(O)O [XI, disodium salt of 5,5-diphenyl-3-(hydroxymethyl]hydantoin phosphoric ester]
- hydrolisis (rate, in words): much more slower
- metabolised at 0.5 min [1]: 8.47 ± 2.79%
- metabolised at 0.5 min [2]: 6.37%
- metabolised at 0.5 min [3]: 7.41%
- metabolised at 0.5 min [4]: 11.7%
- metabolised at 15 s [5]: 4.72 ± 1.84%
- metabolised at 15 s [6]: 3.42%
- metabolised at 15 s [7]: 6.03%
- metabolised at 2 min [5]: 15.1 ± 7.72%
- metabolised at 2 min [6]: 10.5%
- metabolised at 2 min [7]: 10.8%
- metabolised at 2 min [8]: 24%
- metabolised at 7 min [5]: 33.2 ± 12.3%
- metabolised at 7 min [6]: 21.4%
- metabolised at 7 min [7]: 32%
- metabolised at 7 min [8]: 46%
- metabolised at 0.25 h [5]: 59.6 ± 29.8%
- metabolised at 0.25 h [6]: 38.9%
- metabolised at 0.25 h [7]: 46.1%
- metabolised at 0.25 h [8]: 93.8%
- metabolised at 1 h [5]: 77.7 ± 4.6%
- metabolised at 1 h [6]: 74.5%
- metabolised at 1 h [7]: 81%
- metabolised at 2.45 h [5]: 81.31 ± 0.47%
- metabolised at 2.45 h [6]: 81%
- metabolised at 2.45 h [7]: 81.7%
- metabolised at 3.15 h [5]: 88.5 ± 13.1%
- metabolised at 3.15 h [6]: 79.3%
- metabolised at 3.15 h [7]: 97.7%

Reference: patent publication EP0693481A1, “Prodrugs of 5,5-diphenylhydantoin as antiepileptic and antiarrhythmic agents” (LABORATORIOS RUBIO, S.A., priority 1994, dated 1996)
